The values below come from patent publication US10941126B2, “Bridged bicycloalkyl-substituted aminothiazoles and their methods of use” (Temple University—Of The Commonwealth System of Higher …, priority 2017, dated 2021).

For one assay, the system named is SW48 colon cancer cells. The assay can be described thus: SW48-luc tumors in NSG mice (bioluminescence). The format is in vivo, mouse. The conditions noted are these: 10 mg/kg. The procedure: SW48-luc cell line was generated by transfecting ffluc2ires-h2b-egfp into SW48 cells. GFP positive cells were sorted out one week after transfection and expanded for the in vivo experiments. NSG mice were then inoculated (i.p.) with 1×10^5 SW48-luc cells. One week later, at which time substantial tumor burden was evident by bioluminescence imaging, 5-20 mg/kg MC180295 or drug solvent was administered (i.p) every other day. 200 uL of diluted Pierce™ D-Luciferin, Monosodium Salt (Fisher, 88292) (working concentration: 15 mg/mL) was administered (i.p) into each mouse and was imaged using IVIS imaging system 5 minutes after the administration. Three vehicle treated mice and five drug treated mice were used in this study. MC180295 was dissolved in NMP, Captisol (20% w/v), PEG-400 and normal saline (PBS) in a ratio of 1:4:4:11. NMP first, followed by Captisol and PEG-400. PBS was added last.

In another assay the target is T1, CDK9 (Homo sapiens, UniProt P50750).
T1 construct: Nanosyn (contract assay)
T1 sequence (P50750 whole entry): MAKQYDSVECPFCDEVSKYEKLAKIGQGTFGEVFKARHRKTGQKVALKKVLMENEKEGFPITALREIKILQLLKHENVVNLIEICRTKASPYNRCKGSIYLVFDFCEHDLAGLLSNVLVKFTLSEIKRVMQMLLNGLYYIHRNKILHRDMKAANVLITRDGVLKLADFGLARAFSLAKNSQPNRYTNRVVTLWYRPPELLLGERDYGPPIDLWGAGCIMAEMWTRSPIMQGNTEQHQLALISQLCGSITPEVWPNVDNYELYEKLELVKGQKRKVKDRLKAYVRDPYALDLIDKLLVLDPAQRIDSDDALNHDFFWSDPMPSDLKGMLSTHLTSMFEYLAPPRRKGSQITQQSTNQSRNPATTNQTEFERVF
T1 sequence (O60563 whole entry partner): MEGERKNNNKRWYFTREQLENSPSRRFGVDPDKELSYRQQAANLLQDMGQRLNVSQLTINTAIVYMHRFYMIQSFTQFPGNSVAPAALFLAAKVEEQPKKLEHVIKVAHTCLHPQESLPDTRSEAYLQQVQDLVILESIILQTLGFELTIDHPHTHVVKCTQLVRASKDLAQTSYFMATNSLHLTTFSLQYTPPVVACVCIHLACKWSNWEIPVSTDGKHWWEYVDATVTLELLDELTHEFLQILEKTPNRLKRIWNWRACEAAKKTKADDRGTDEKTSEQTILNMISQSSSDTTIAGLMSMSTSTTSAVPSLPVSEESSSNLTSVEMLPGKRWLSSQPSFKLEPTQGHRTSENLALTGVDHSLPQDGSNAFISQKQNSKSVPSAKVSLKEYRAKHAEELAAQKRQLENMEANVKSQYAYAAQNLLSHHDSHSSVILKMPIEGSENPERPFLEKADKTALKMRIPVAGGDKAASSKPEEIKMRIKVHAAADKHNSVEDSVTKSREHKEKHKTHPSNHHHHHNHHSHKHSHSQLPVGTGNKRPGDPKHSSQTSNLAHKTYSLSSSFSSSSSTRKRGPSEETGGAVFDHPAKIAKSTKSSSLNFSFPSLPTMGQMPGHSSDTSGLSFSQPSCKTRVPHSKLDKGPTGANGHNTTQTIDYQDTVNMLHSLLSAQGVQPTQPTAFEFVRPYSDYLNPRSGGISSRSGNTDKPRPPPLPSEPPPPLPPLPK
The assay can be described thus: Kinase enzymatic assay (Nanosyn, microfluidic), IC50 curves against CDKs. The format is biochemical. The procedure: (§1) HDAC inhibitory activity assays were performed using FLUOR DE LYS® HDAC fluorometric activity assay kit from Enzo following the manufacturer's instructions. GloMax®-Multi Detection System (Promega) was used to read the fluorescence signals. Histone methyltransferase and demethylase enzymatic assays were performed by BPS Bioscience at 10 μM in duplicates. Kinase enzymatic assays were performed by Nanosyn using microfluidic technology. 250 kinome screening was done in duplicates using MC180295 at 1 μM. IC50 curves against 10 CDKs were created for MC180295. The human kinome tree was annotated using the online Kinome Render software (Chartier, M., Chénard, T., Barker, J., and Najmanovich, R. (2013). PeerJ 1, e126). Isotope kinase assay was performed using previously described methods (Garriga, J., Peng, J., Parreño, M., Price, D. H., Henderson, E. E., and Graña, X. (1998). Oncogene 17, 3093-3102) using recombinant active full-length CDK9/CyclinT1 (Millipore, 14-685) and SMARCA4 (Abcam, ab82237) in the presence or absence of CDK9 inhibitors.

The next assay deals with T2, GSK-3a (Homo sapiens, UniProt P49840).
T2 construct: Nanosyn (contract assay)
T2 sequence (P49840 whole entry): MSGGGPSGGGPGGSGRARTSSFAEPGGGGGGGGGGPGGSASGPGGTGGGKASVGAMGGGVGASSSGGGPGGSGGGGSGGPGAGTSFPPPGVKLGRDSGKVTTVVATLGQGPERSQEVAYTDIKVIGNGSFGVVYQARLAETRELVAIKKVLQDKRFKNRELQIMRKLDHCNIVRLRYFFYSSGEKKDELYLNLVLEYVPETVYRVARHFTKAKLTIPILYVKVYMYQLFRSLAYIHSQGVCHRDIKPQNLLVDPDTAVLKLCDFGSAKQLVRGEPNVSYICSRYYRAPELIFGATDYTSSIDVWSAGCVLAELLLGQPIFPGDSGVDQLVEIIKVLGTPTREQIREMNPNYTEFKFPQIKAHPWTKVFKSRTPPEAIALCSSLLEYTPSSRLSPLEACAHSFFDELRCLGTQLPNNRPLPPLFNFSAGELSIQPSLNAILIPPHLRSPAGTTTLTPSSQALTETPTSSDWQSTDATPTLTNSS
Nature of the assay: 250 kinome screening at 1 μM. The format is biochemical. As for the experimental part:
as §1

The target in the next assay is T3, GSK-3β (Homo sapiens, UniProt P49841).
T3 construct: Nanosyn (contract assay)
T3 sequence (P49841 whole entry): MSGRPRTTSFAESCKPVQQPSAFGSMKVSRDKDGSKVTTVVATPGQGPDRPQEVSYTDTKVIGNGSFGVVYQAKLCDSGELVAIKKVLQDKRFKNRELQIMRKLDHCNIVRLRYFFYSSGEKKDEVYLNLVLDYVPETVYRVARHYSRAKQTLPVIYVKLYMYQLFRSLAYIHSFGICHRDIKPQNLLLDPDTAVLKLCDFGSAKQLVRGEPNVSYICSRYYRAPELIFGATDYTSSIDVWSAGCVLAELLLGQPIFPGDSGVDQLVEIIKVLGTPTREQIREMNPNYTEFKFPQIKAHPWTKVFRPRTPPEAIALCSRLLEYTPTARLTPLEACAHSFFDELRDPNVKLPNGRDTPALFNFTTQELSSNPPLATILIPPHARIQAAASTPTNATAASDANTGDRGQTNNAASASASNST
The assay can be described thus: 250 kinome screening at 1 μM. The format is biochemical. The procedure:
as §1

The subject of the next assay is SMARCA4. Nature of the assay: Phosphoproteomics (LC-MS/MS) in YB5 cells. It counts as cell-based, human. The conditions noted are these: 500 nM, 4 hr. As for the experimental part:
YB5 cells were treated with or without 500 nM MC180295 for 4 hours. Nuclear fraction was enriched using a hypotonic lysis buffer as previously described (Boden, G., Homko, C., Barrero, C. A., Stein, T. P., Chen, X., Cheung, P., Fecchio, C., Koller, S., and Merali, S. (2015), Sci Transl Med 7, 304-307). Proteins from the nuclear fraction were extracted with M-PER Mammalian Protein Extraction Reagent (Thermo Scientific, #78501) in the presence of protease and phosphatase inhibitors (Halt™ Protease Inhibitor Cocktail, #87785 and Halt™ Phosphatase Inhibitor Single-Use Cocktail, #78428). Phosphoproteins were enriched from 500 μg of nuclear extracted proteins, using a phosphoprotein purification kit (QIAGEN, #37101). Both samples were processed using in-StageTip method for digestion and peptide purification before performing LC-MS/MS proteomics analysis. The mass spectrometry proteomics data have been deposited to the ProteomeXchange Consortium via the PRIDE (Vizcaino, J. A., Csordas, A., del-Toro, N., Dianes, J. A., Griss, J., Lavidas, I., Mayer, G., Perez-Riverol, Y., Reisinger, F., Tement, T., et al. (2016). 2016 update of the PRIDE database and its related tools. Nucleic Acids Res 44, D447-456) partner repository with the dataset identifier PXD008040. […]

The subject of assay [1] is cancer cell lines and normal IMR90 cells. Nature of the assay: Anti-proliferation assay (trypan blue exclusion). The conditions noted are these: four days after one-time exposure. The format is cell-based, human. As for the experimental part: Cells were seeded in 96-well plates at 40% confluency in triplicates. Fresh medium was changed the next day and drugs were added directly. After mixing thoroughly, plates were cultured in a 37° C. incubator for two more days. Drug-free fresh medium was changed the fourth day. The cells were collected on day 5 by trypsin, suspended in medium, mixed with trypan blue (1:1 ratio), and counted using LUNA II automated cell counter. Each sample was counted at least three times and the average numbers were used for the analysis. Each treatment condition was performed at least in triplicates.

The test system of the next assay is HL60 cell line. Nature of the assay: HL60 cell differentiation (CD11b). The format is cell-based, human. As to conditions: four-day single-dose treatment. The procedure:
For drug screening and dose response validations, GFP positive cells were detected by Millipore Guava flow cytometer (EMD, Millipore). Cell cycle analysis was performed using BD FACSCalibur™ by propidium iodide staining four days after drug treatment. Sub-G1 population percentage was also included to measure apoptotic cell proportion. Data were analyzed using FlowJo software version 10.2. For the cell differentiation analysis, cells were washed and stained with propidium iodide (PI), CD11 b (BD Biosciences, #562793) and the isotype control IgG (BD Biosciences, #555748). Flow cytometry analysis was performed on a Millipore Guava flow cytometer (EMD, Millipore). For the ID8 in vivo experiments, ascites was drained from 5-10 mice per group and incubated in ACK buffer (Thermo Fisher) to lyse red blood cells for 10 minutes, then washed. Ascites from each mouse was individually lysed and prepared for flow cytometry. Mononuclear cells collected were cultured for 4 hours in RPMI with 5% Fetal Bovine Serum and in the presence of Cell Stimulation Cocktail (plus protein transport inhibitors; eBioscience). […] Flow cytometry acquisition was performed on an LSRII cytometer (BD Biosciences) and data were analyzed using FlowJo software version 10.2.

SMILES strings stand for the structures.

As for `Nc1nc(N[C@H]2CC3CCC2C3)sc1C(=O)c1ccccc1[N+](=O)[O-]` (stereo partly drawn) [MC180295], in the assay on SW48 colon cancer cells (after one-week drug exposure), the “tumor shrinkage (luciferase activity)” value was ~50%. In addition, the “tumor burden (luciferase activity)” value in the assay on SW48 colon cancer cells (after three weeks drug treatment) is given as “lower”. Moreover, the midpoint of inhibition against CDK9, the IC50, lay at 5 nM. Also, the “selectivity for CDK9 over other CDKs” value on CDK9 (10 different CDKs) is given as “at least 22 fold”. In addition, the inhibition entry on GSK-3a and against GSK-3β was “inhibited” throughout. In addition, the “phosphorylation of SMARCA4 serine/threonine residues” value in the assay on SMARCA4 is reported as “dephosphorylated”. Moreover, the “reduction of proliferation, cancer cells vs normal cells (IMR90)” value in assay [1] is given as “more effective in reducing proliferation of cancer cells than normal control cells”. Moreover, the “differentiation marker CD11b” value in the assay on HL60 cell line is given as “significant induction”.
